From patent US20060223780A1, “Method for administration of capecitabine” (priority 2005, published 2006)

How the values were obtained:
MAXF 401 = conditions: cited from earlier work
tumor [1] = test: Experiment 2 data: Gompertzian growth / drug effect (DE) population modelling with NONMEM; assay type: in vivo; conditions: for time of maximal DE after start of treatment, average / time of maximal DE after start of treatment, range: individual data; for time of maximal drug effect (DE) after start of treatment / Day on which the drug effect (DE) is maximal, F'(x)≈0: pooled data; for Day on which the drug effect (DE) is maximal, F'(x)≈0: start of treatment day 17
Description: Therefore, the data were then analyzed for the approved (14/7) chemotherapy drug schedule by measuring at each time point after the initiation of therapy the ratio of the (data-derived) expected Gompertzian growth rate in the unperturbed (control) state compared with that observed in the treated state. Curve-fitting was performed by non-linear mixed-effect population modeling using NONMEM software.
The Analysis performed used a non-linear mixed effects population modelling approach with the NONMEM software:
A) with the Gompertzian growth model (TV: tumor volume): • dTV/dt=α*TV−((α/log(TVinf))*TV*log(TV))
B) and the drug effect (DE) model • dTV/dt=α*TV−((α/log(TVinf)*TV*log(TV))*(1−DE)

MX-1 = conditions: cited from earlier work
[2] = approved dose and schedule of capecitabine; cited from earlier work
tumor [3] = test: Experiment 2: schedules at the same daily dosages (survival, tumor volume, body weight); assay type: in vivo
Source text: Following is the design of the final experiment with the schedules and dosages used (Table 2): […]

[4] = Schedule C (2 d on, 5 d off), even at the lowest daily dosages
[5] = non toxic doses, compared between schedules, p.o.

For `CCCCCOC(=O)Nc1nc(=O)n([C@@H]2O[C@H](C)[C@@H](O)[C@H]2O)cc1F` [capecitabine, 5′-deoxy-5-fluoro-N-[(pentyloxy)-carbonyl]-cytidine], the “toxicity (death of mice)” value (MAXF 401; [4]) is given as “most of the mice died”, the “antitumor efficacy (tumor growth inhibition after 6 weeks of treatment)” value (MAXF 401; [5]) is given as “equivalent” and the “time of maximal DE after start of treatment, average” value (tumor [1]; 1.5 mmol/kg/day) is given as 8.3 days. For the same molecule, the “time of maximal DE after start of treatment, range” value (tumor [1]; 1.5 mmol/kg/day) was 6 to 11 days, the “time of maximal drug effect (DE) after start of treatment” value (tumor [1]; 1.5 mmol/kg/day) was 10 days and the “Day on which the drug effect (DE) is maximal, F'(x)≈0” value (tumor [1]; 1.5 mmol/kg/day) was 27. For the same molecule, the “time of maximal DE after start of treatment, average” value (tumor [1]; 2.25 mmol/kg/day) was 10.1 days, the “time of maximal DE after start of treatment, range” value (tumor [1]; 2.25 mmol/kg/day) was 5 to 18 days and the “time of maximal drug effect (DE) after start of treatment” value (tumor [1]; 2.25 mmol/kg/day) was 8 days. For the same molecule, the “Day on which the drug effect (DE) is maximal, F'(x)≈0” value (tumor [1]; 2.25 mmol/kg/day) was 25, the “time point of maximum impact of treatment (averages), into therapy” value (tumor [1]; all dose levels analyzed, 14/7 schedule) was 8.3 to 10.1 days and the “toxicity (death of mice)” value (MX-1; [4]) was “most of the mice died”. The “antitumor efficacy (tumor growth inhibition after 6 weeks of treatment)” value (MX-1; [5]) was “equivalent”, the “median time to onset of hand-foot syndrome” value [2] was “about 79 days” and the toxicity (tumor [3]; higher 2 dose levels, 14 days of treatment compared to shorter treatment durations (dose comparison, Tables 4-1, 4-2)) was “increased levels of toxicity”. For the same molecule, the safety profile (tumor [3]; higher daily dosage, reduced number of treatment days, reintroduced after a rest period) was “same or a better safety profile”, the toxicity (tumor [3]; higher dose levels 24, 14 days of treatment compared to shorter treatment durations (schedule comparison, Tables 5-1, 5-2)) was “increased levels of toxicity” and the survival curves (tumor [3]; lower 2 dose ranges, 14 days on/7 days off vs 7 days on/7 days off) was “similar”. The “efficacy (tumor volume), schedule comparison at the same daily dosages” value (tumor [3]; lowest dose level) was “advantage in efficacy towards the 14 days on/7 days off schedule”, the efficacy (tumor [3]; schedules with a fewer number of treatment days, at higher dose levels) was “higher efficacy” and the tumor volume reduction (tumor [3]; two lowest dose levels, 14 days on/7 days off vs 7 days on/7 days off) was “similar”.
